Laboratory results as given in ChEMBL document CHEMBL5625260, “Novel xanthone derivatives as potent sirtuin 2 inhibitors” (Bioorg Med Chem Lett, 2024).
pEC50, pIC50: −log10 of the molar value. Active and inactive are the calls of the source. The calls are words filed in the database; no cut-off is given here.

Tests used:
[1] = molecular target: T1, NAD-dependent protein deacetylase sirtuin-1 (Homo sapiens, UniProt Q96EB6); test: Activation of N-terminal His-tagged recombinant human SIRT1 (193 to end residues) expressed in baculovirus infected Sf9 insect cells incubated for 15 to 45 mins by luminescence based assay
T1 sequence (Q96EB6 whole entry): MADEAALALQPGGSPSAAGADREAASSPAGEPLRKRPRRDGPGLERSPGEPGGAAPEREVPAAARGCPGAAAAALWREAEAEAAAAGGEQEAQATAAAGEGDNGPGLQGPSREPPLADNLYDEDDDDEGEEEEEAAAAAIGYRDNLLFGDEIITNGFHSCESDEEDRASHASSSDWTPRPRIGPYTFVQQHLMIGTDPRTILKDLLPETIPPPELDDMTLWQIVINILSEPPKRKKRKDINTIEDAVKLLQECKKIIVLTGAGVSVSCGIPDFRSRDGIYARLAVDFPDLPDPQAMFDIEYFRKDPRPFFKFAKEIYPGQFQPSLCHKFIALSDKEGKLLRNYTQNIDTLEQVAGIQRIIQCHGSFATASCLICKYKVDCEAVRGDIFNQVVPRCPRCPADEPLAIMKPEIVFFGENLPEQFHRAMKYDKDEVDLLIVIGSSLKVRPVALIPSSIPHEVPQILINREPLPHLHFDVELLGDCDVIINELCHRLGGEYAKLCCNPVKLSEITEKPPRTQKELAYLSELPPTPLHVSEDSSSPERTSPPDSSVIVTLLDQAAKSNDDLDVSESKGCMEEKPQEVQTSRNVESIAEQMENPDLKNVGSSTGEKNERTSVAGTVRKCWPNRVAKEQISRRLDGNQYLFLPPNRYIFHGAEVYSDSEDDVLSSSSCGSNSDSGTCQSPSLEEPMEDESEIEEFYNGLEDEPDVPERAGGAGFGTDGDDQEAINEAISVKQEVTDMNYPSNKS

[2] = molecular target: T2, NAD-dependent protein deacetylase sirtuin-1 (Homo sapiens) (UniProt Q96EB6); test: Activation of SIRT1 (unknown origin) at 50 uM relative to control
T2 sequence (whole entry): T1 sequence (Q96EB6 whole entry)

[3] = molecular target: T3, NAD-dependent protein deacetylase sirtuin-2 (Homo sapiens) (UniProt Q8IXJ6); test: Inhibition of SIRT2 (unknown origin) at 50 uM relative to control
T3 sequence (whole entry): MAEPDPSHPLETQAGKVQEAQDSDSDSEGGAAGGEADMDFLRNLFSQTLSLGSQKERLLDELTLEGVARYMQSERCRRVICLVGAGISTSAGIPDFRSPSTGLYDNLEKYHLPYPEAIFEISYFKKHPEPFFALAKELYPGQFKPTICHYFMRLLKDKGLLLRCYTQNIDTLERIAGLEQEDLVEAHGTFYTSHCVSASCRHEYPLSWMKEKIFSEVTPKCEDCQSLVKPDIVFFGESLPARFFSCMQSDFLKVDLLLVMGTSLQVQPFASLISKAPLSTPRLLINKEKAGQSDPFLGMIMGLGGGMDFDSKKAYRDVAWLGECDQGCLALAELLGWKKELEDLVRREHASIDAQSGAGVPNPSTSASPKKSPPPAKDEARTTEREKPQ

[4] = Antioxidant activity of compound at 150 to 1000 uM by DPPH assay; assay type: functional; conditions: dose 150-1000 µM
[5] = Antioxidant activity of compound at 500 uM by DPPH assay relative to control; assay type: functional
[6] = molecular target: T4, NAD-dependent protein deacetylase sirtuin-2 (Homo sapiens, UniProt Q8IXJ6); test: Inhibition of SIRT2 (unknown origin)
T4 sequence (Q8IXJ6 whole entry): T3 sequence (whole entry)

[7] = molecular target: T1, NAD-dependent protein deacetylase sirtuin-1; test: Inhibition of AMC-conjugated recombinant human SIRT1 (379 to 382 residues) using […] substrate incubated for 45 mins by fluorescence based assay
[8] = molecular target: T5, NAD-dependent protein deacetylase sirtuin-3, mitochondrial (Homo sapiens, UniProt Q9NTG7); test: Inhibition of AMC-conjugated recombinant human SIRT3 ( 317 to 320 residues) using […] substrate incubated for 45 mins by fluorescence based assay
T5 sequence (Q9NTG7 whole entry): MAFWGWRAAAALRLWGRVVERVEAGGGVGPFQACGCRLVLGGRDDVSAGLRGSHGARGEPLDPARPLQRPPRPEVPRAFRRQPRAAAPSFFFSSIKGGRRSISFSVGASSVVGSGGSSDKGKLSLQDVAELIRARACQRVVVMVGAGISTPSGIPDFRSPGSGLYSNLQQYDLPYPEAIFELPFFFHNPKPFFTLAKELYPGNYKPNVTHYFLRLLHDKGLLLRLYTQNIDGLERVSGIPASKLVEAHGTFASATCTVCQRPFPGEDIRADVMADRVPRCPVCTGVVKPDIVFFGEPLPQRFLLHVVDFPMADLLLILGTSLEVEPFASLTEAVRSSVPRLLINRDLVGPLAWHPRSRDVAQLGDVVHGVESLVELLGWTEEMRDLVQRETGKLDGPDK

Compound | Activity [2] [%] | inhibition [3] [%] | Activity [4] | further results
CC(C)=CCc1c(O)c(CC=C(C)C)c2oc3c(O)ccc(O)c3c(=O)c2c1O [GARTANIN] | – | – | – | pEC50 [1]: 5.75
Cc1ccc(C(=O)Nc2ccc(S(=O)(=O)O)c3cc(S(=O)(=O)O)cc(S(=O)(=O)O)c23)cc1NC(=O)c1cccc(NC(=O)Nc2cccc(C(=O)Nc3cc(C(=O)Nc4ccc(S(=O)(=O)O)c5cc(S(=O)(=O)O)cc(S(=O)(=O)O)c45)ccc3C)c2)c1 [SURAMIN] | – | – | – | pIC50 [6]: 4.62
Oc1ccc(/C=C/c2cc(O)cc(O)c2)cc1 | – | 83 | – | Activity ([2]; filed as activator): 96.6%
CC(C)=CCc1c(O)cc2oc3cc(O)c(O)c(CC=C(C)C)c3c(=O)c2c1O | – | – | – | pIC50 [7]: 4.65; pIC50 [8]: 4.57
COc1ccc(OC)c(CN2CCN(Cc3ccc4oc5c(Cl)cccc5c(=O)c4c3)CC2)c1 | -12.4 | 55.9 | – | –
COc1ccccc1N1CCN(Cc2ccc3oc4c(Cl)cccc4c(=O)c3c2)CC1 | -17.1 | 49.5 | inactive | –

More lines, main results first:

Activity [2] [%] | inhibition [3] [%] | Compound | Activity [4] | further results
-117 | 48.5 | COc1cccc(N2CCN(Cc3ccc4oc5c(Cl)cccc5c(=O)c4c3)CC2)c1 | inactive | Activity [5]: 17.9%
-10.3 | 82.1 | COc1ccccc1CNCc1ccc2oc3c(Cl)cccc3c(=O)c2c1 | inactive | –
-22.1 | 93.2 | COc1ccccc1CCNCc1ccc2oc3c(Cl)cccc3c(=O)c2c1 | inactive | –
-19.5 | 82.7 | COc1ccc(CNCc2ccc3oc4c(Cl)cccc4c(=O)c3c2)cc1OC | inactive | –
